{"source": "patent US20070225171A1", "about": "(priority 2001, published 2007)", "key": {"[1]": {"test_system": "SAD2 - Cultivar KY 160 genetically engineered to express a modified version of the SAD1 synthetic gene", "test": "Yield assay, 2,4-D sprayed on transgenic SAD2 tobacco", "type": "in vivo, Nicotiana tabacum", "conditions": "for Plant Yield / Percent Leaf Yield / Corrected Leaf Yield / Corrected Plant Yield / Leaf Yield: SAD2 tobacco, isooctyl ester formulation; for Plant Yield / Corrected Leaf Yield / Corrected Plant Yield / Leaf Yield: dry matter 21 days after spraying; for Percent Leaf Yield: 21 days after spraying", "method": "(§1) The use of exogenously supplied synthetic auxins on agronomic crops to elicit direct non-herbicidal effects, with an emphasis on the potential enhancement of yield, was assessed using genetically-engineered (GE) tobacco plant lines expressing synthetic auxin metabolizing genes. Non-GE controls were used, permitting separation of the herbicidal and biological properties of the exogenously supplied synthetic auxins. Tobacco was utilized to model dry matter yield.\n(§2) The research was conducted in a single phase entailing characterization of response variables when plants were subjected to maximum (1× rate=1 pound/acre of active ingredient) and low (¼×=4 ounces/acre of active ingredient) rates of exogenously applied 2,4-dichlorophenoxyacetic acid (2,4-D). GE lines of tobacco (dark fired cultivar “KY 160”) expressing a synthetic gene for auxin metabolism (SAD1 or SAD2) were used, along with non-GE lines of the same genotype as control material. Commercial tobacco production has long utilized decapitation (“topping”) to initiate a predictable increase in leaf weight, thickness, and dry matter yield. This yield increase is dependent upon variables, such as genotype and fertility. By utilizing controls of the same genotype and a fixed level of fertility, significant yield variation responses should be attributable to the treatment (exogenous auxin herbicide application).\n(§3) The overall experimental design was comprised of three parallel completely randomized designs with spray rate and genotype as the main factors. Three replications were performed for each treatment within each experiment. Each replication was the average measurement of six plants. The tobacco lines were allowed to advance to the 6-8 leaf stage. Upon reaching this stage, the primary meristem was removed along with lower leaves so that only 4 leaves remained. Plants were then sprayed with herbicide and permitted to grow for an additional 21 days. At the end of this period, dry matter yields for both leaf and the whole plant were measured.\n(§4) Yield data recorded for tobacco were leaf dry matter, leaf number, and total dry matter. Corrected plant yield and corrected leaf yield were calculated for each replication as the leaf dry matter divided by leaf number then multiplied by the expected number of leaves (6 plants×4 leaves=24). This corrected leaf yield was then added to stem yield fraction (arrived at by subtracting actual leaf yield from total plant yield) to create a corrected total plant yield. All tobacco yield measurements were recorded in grams after a 7-day drying period in ambient air dryers.\n(§5) Seed of non-transgenic tobacco lines were germinated on MS03 (MS salts, B5 vitamins, 3% sucrose) medium. Transgenic seeds were germinated on the same medium augmented with 300 mg/L kanamycin monosulfate to allow detection of any seedlings failing to carry the transgene. Thirty days after germination, seedlings were transplanted to the greenhouse into flats holding 8 trays of 6 plants each for a total of 48 plants. Plants were permitted to grow for approximately 45 days, at which time 6-8 leaves had developed. Prior to spraying, the top of the plant retaining the uppermost two leaves was removed (decapitated) resulting in the retention of 4 fully-extended leaves for each plant.\n(§6) For spray assays and for the yield studies, spraying was performed in an Allen Machine Works Spray Cabinet. Spray rates were established as the equivalent of 16 ounces of active ingredient per acre (1× rate), 4 ounces active ingredient/acre (¼× rate), and the control (no active ingredient per acre or 0×). The herbicide used was 2,4-D, isooctyl ester formulation (3.9 pounds of active ingredient/gallon) at equivalent rates noted above. To achieve this equivalent 1× field rate, 500 microliters of herbicide were diluted into a total volume of 50 ml. The ¼× field rate was achieved by diluting 125 microliters of herbicide in a 50 ml volume. […]"}, "[2]": {"test_system": "SAD2 - Cultivar UC82B genetically engineered to express a synthetic gene for tolerance to phenoxy herbicides", "test": "Fruit yield assay, 2,4-D sprayed on transgenic SAD2 tomato", "type": "in vivo, Lycopersicon esculentum", "conditions": "for Total Yield (Fresh Fruit Yield) / Fruit Weight (Average Fresh Fruit Weight) / Total Flowers / Fruit per Plant / Total Fruit No.: SAD2 tomato; for Total Yield (Fresh Fruit Yield): harvested over 60 days; for Fruit Weight (Average Fresh Fruit Weight) / Total Flowers / Fruit per Plant / Total Fruit No.: 60 days; for Total Flowers: Flower Number/plant/replication/treatment; for Fruit per Plant: Fruit Number/plant/replication/treatment; for Total Fruit No.: Total Fruit Number/replication/treatment", "text": "The use of exogenously supplied synthetic auxins on agronomic crops to elicit direct non-herbicidal effects was further assessed using genetically-engineered tomato plant lines expressing a synthetic auxin metabolizing gene, and non-genetically-engineered controls. Tomato was utilized to model fruit retention (fruit set) and fruit yield. The transgenic tomato line was utilized in the T2 generation with the transgene fixed in a homozygous fashion. The tomato genotype UC82L was utilized as the control, as well as the background for tranformation with the pPZP211-PNPT-311-SAD2 binary plasmid. This genotype was chosen because it is more likely to closely approximate the behavior of field-grown tomatoes than some short-life-cycle laboratory strains of tomato.\nIn the same manner as for tobacco, the research was conducted in a single phase entailing characterization of response variables when plants were subjected to the maximum (1× rate=1 pound/acre of active ingredient) and low (¼×=4 ounces/acre of active ingredient) rates of exogenously applied 2,4-D. The overall experimental design was comprised of three parallel completely randomized designs with spray rate and genotype as the main factors. Three replications were performed for each treatment within each experiment. Each replication was the average of three plants that were harvested over a period of 60 days. Fruit number, fruit weight and flower number were measured directly, with average fruit weight and average fruit per plant being derived by dividing fruit weight and fruit number within a replication by the number of plants (3). Tomato fruit yield was measured on fresh fruit and recorded in grams.\nThe binary plasmid pPZP211-PNPT-311-SAD2 used for transformation was the same as that used in Example 1, and tomato (Lycopersicon esculentum) cultivar UC82B (a cultivar nearly identical to UC82L) was transformed by Agrobacterium-mediated transformation of leaf tissue with the binary plasmid as described in Example 1. Transgenic plants were produced from the transformed leaf tissue as described in Example 1.\nNon-transgenic and transgenic seed were germinated and grown as described in Example 1 for tobacco. The transgenic tomato line was utilized in the T2 generation with the transgene fixed in a homozygous fashion.\nThe plants with 4 fully-extended leaves retained were sprayed as described in Example 1. Each replication (3 plants) was sprayed independently and permitted to dry before being moved back to the greenhouse for further growth for 60 days.\nFruit number, fruit weight, and flower number were measured directly during this 60-day period. Tomato fruit yield was measured on fresh fruit and recorded in grams."}, "[3]": {"test_system": "SAD1 - Cultivar KY 160 genetically engineered to express a synthetic gene for tolerance to phenoxy herbicides", "test": "Yield assay, 2,4-D sprayed on transgenic SAD1 tobacco", "type": "in vivo, Nicotiana tabacum", "conditions": "for Plant Yield / Percent Leaf Yield / Corrected Leaf Yield / Corrected Plant Yield / Leaf Yield: SAD1 tobacco, isooctyl ester formulation; for Plant Yield / Corrected Leaf Yield / Corrected Plant Yield / Leaf Yield: dry matter 21 days after spraying; for Percent Leaf Yield: 21 days after spraying", "method": "as §1, §2, §3, §4, §5, §6"}, "[4]": {"conditions": "2,4-D rate 1X (1 pound active ingredient/acre)"}, "[5]": {"conditions": "2,4-D rate ¼X (4 ounces active ingredient/acre)"}}}
{"smiles": "O=C(O)COc1ccc(Cl)cc1Cl", "note": "[2,4-D, 2,4-dichlorophenoxyacetic acid]", "values": [{"measurement": "Plant Yield", "setting": "[1]; [4]", "result": "48.8 grams/plant/replication/treatment"}, {"measurement": "Percent Leaf Yield", "setting": "[1]; 2,4-D rate 1X", "result": 42.2, "unit": "%"}, {"measurement": "Corrected Leaf Yield", "setting": "[1]; 2,4-D rate 1X", "result": "21.6 grams/plant/replication/treatment"}, {"measurement": "Corrected Plant Yield", "setting": "[1]; 2,4-D rate 1X", "result": "51.0 grams/plant/replication/treatment"}, {"measurement": "Leaf Yield", "setting": "[1]; 2,4-D rate 1X", "result": "19.4 grams/plant/replication/treatment"}, {"measurement": "Plant Yield", "setting": "[1]; [5]", "result": "43.9 grams/plant/replication/treatment"}, {"measurement": "Percent Leaf Yield", "setting": "[1]; 2,4-D rate ¼X", "result": 42.2, "unit": "%"}, {"measurement": "Corrected Leaf Yield", "setting": "[1]; 2,4-D rate ¼X", "result": "19.1 grams/plant/replication/treatment"}, {"measurement": "Corrected Plant Yield", "setting": "[1]; 2,4-D rate ¼X", "result": "45.2 grams/plant/replication/treatment"}, {"measurement": "Leaf Yield", "setting": "[1]; 2,4-D rate ¼X", "result": "17.8 grams/plant/replication/treatment"}, {"measurement": "effect on yield", "setting": "[1]; transgenic material (SAD2) sprayed with either the ¼× or 1× rate", "result": "significant increase in yield"}, {"measurement": "Total Yield (Fresh Fruit Yield)", "setting": "[2]; spray rate 1X (1 pound active ingredient/acre), 2,4-D isooctyl ester formulation", "result": "131.9 grams/plant/replication/treatmen"}, {"measurement": "Fruit Weight (Average Fresh Fruit Weight)", "setting": "[2]; spray rate 1X", "result": "13.7 grams/fruit/plant/replication/treatment"}, {"measurement": "Total Flowers", "setting": "[2]; spray rate 1X", "result": 19.7}, {"measurement": "Fruit per Plant", "setting": "[2]; spray rate 1X", "result": 2.4}, {"measurement": "Total Fruit No.", "setting": "[2]; spray rate 1X", "result": 9.7}, {"measurement": "Total Yield (Fresh Fruit Yield)", "setting": "[2]; spray rate ¼X (4 ounces active ingredient/acre), 2,4-D isooctyl ester formulation", "result": "122.9 grams/plant/replication/treatmen"}, {"measurement": "Fruit Weight (Average Fresh Fruit Weight)", "setting": "[2]; spray rate ¼X", "result": "14.4 grams/fruit/plant/replication/treatment"}, {"measurement": "Total Flowers", "setting": "[2]; spray rate ¼X", "result": 17.3}, {"measurement": "Fruit per Plant", "setting": "[2]; spray rate ¼X", "result": 2.2}, {"measurement": "Total Fruit No.", "setting": "[2]; spray rate ¼X", "result": 8.7}, {"measurement": "effect on average fruit weight", "setting": "[2]; transgenic line, ¼× rate", "result": "increase in average fruit weight"}, {"measurement": "effect on total flower number", "setting": "[2]; transgenic lines, ¼× rate", "result": "increasing the number of flowers"}, {"measurement": "Plant Yield", "setting": "[3]; [4]", "result": "42.5 grams/plant/replication/treatment"}, {"measurement": "Percent Leaf Yield", "setting": "[3]; 2,4-D rate 1X", "result": 44.7, "unit": "%"}, {"measurement": "Corrected Leaf Yield", "setting": "[3]; 2,4-D rate 1X", "result": "19.1 grams/plant/replication/treatment"}, {"measurement": "Corrected Plant Yield", "setting": "[3]; 2,4-D rate 1X", "result": "42.7 grams/plant/replication/treatment"}, {"measurement": "Leaf Yield", "setting": "[3]; 2,4-D rate 1X", "result": "18.8 grams/plant/replication/treatment"}, {"measurement": "Plant Yield", "setting": "[3]; [5]", "result": "43.5 grams/plant/replication/treatment"}, {"measurement": "Percent Leaf Yield", "setting": "[3]; 2,4-D rate ¼X", "result": 40.5, "unit": "%"}, {"measurement": "Corrected Leaf Yield", "setting": "[3]; 2,4-D rate ¼X", "result": "17.8 grams/plant/replication/treatment"}, {"measurement": "Corrected Plant Yield", "setting": "[3]; 2,4-D rate ¼X", "result": "43.9 grams/plant/replication/treatment"}, {"measurement": "Leaf Yield", "setting": "[3]; 2,4-D rate ¼X", "result": "17.4 grams/plant/replication/treatment"}, {"measurement": "effect on yield", "setting": "[3]; transgenic material (SAD1) sprayed with either the ¼× or 1× rate", "result": "significant increase in yield"}]}
